# Measurements: patent US11365201B2, “Chlorotonil derivatives” (HELMHOLTZ-ZENTRUM FÜR INFEKTIONSFORSCHUNG GMBH, priority 2017, dated 2022)
# Experiments:
# [1] = test system: chloroquine-sensitive laboratory strains of Plasmodium falciparum; conditions: read-out: mean IC50, chloroquine-sensitive laboratory strains of Plasmodium falciparum; in vitro, first screening; cited from earlier work
# [2] = Determination of water solubility, Method 2 (HPLC-MS standard curve, saturated solution in water); assay type: physicochemical; conditions: thermodynamic from solid; saturated solution in water, HPLC-MS standard curve
# Experimental: (§1) Determination of Water Solubility
# A standard curve with 10 calibration points of the compound of interest is plotted using HPLC-MS and serial dilution. The dilutions and stock solutions were prepared in THF as a solvent. Following the measurements, a saturated solution in water of the compound in study was also measured. Upon plotting the standard curve using the peak areas of the MS peaks, the water samples were plotted along the curve and the solubility was then calculated.
# [3] = test system: clinical isolates from Gabon; conditions: read-out: median IC50, clinical isolates from Gabon; in vitro; cited from earlier work
# Plasmodium falciparum = conditions: cited from earlier work
# [4] = test system: mature stage (stage IV-V) gametocytes; conditions: read-out: mean IC50, gametocytocidal activity, ATP bioluminescence; cited from earlier work
# [5] = test system: L-929 (murine fibroblasts); experiment: Cytotoxicity assay (MTT, 5 d); assay type: cell-based; conditions: Mus musculus, L929, 120 h
# Experimental: Cytotoxicity Assay The murine fibroblast cell line L-929 was obtained from the German Collection of Microorganisms and Cell Cultures (DSMZ) and maintained under conditions recommended by the depositor. Cells were seeded at 6×10^3 cells per well of sterile 96-well plates in 180 μL complete medium and treated with the compounds in serial dilution after 2 h of equilibration. After 5 d, viability was assessed by the MTT method. After 1.5 h incubation with 0.5 mg/mL MTT reagent, cells were washed with PBS and 100 μL of 2-propanol/10 N HCl (250:1) was added. The absorbance at 570 nm was determined on a microplate reader and cell viability was expressed as percentage relative to the respective solvent control. Half-inhibitory concentrations (IC50) were determined by sigmoidal curve fitting.
# [6] = Determination of water solubility, Method 1 (suspension in tap water, weighing); assay type: physicochemical; conditions: thermodynamic from solid, room temperature, 18 h stirring, triplicates
# Experimental: as §1
# 10 mg of compound was suspended in 1 L of tap water and the solution was stirred at room temperature for 18 h. Upon completion, solution was sonicated for another hour, centrifuged and the supernatant was separated from the precipitate. Both aliquots were lyophilized, and weighed. This procedure was performed in triplicates.
# [7] = test system: chloroquine-resistant laboratory strains of Plasmodium falciparum; conditions: read-out: mean IC50, chloroquine-resistant laboratory strains of Plasmodium falciparum; in vitro, first screening; cited from earlier work
# E. coli TolC (+PMBN) = experiment: Antimicrobial assay, MIC by microbroth dilution with PMBN; assay type: cell-based; conditions: 16 h, 3 μg/mL polymyxin B nonapeptide (PMBN) added
# Experimental: Bacterial strains used in susceptibility assays (minimum inhibitory concentrations, MIC) were either part of our internal strain collection or were purchased form the German Collection of Microorganisms and Cell Cultures (DSMZ). All compounds were prepared as DMSO stocks and MIC values were determined in standard microbroth dilution assays. Overnight cultures of bacteria were diluted in cation-adjusted Muller-Hinton broth (BBL™, BD) and were adjusted to approximately 10^5 cfu/mL. For the E. coli culture, 3 μg/mL of polymyxin B nonapeptide (PMBN) was added to increase permeability of the outer membrane as chlorotonils were previously shown to not penetrate into Gram-negative cells. Bacteria were grown in the presence of the derivatives in serial dilution for 16 h at their optimal growth temperature. MIC values were determined according to CLSI guidelines (antibiotic concentration at which no visible bacterial growth is observed).
# [8] = mice; cited from earlier work
# [9] = test system: P. falciparum Dd2 (resistant strain); experiment: Antiplasmodial in vitro drug sensitivity assay (HRP2-ELISA); assay type: cell-based; conditions: Plasmodium falciparum, DD2, read-out: IC50 against P. falciparum Dd2
# Experimental: (§2) Two laboratory strains of P. falciparum, the chloroquine sensitive 3D7 and the multi-resistant Dd2 were kept in continuous culture as previously described (Trager and Jensen 1976). In brief, parasites were kept in complete culture medium (RPMI 1640, 25 mM HEPES, 2 mM L-glutamine, 50 μg/ml gentamicin and 0.5% w/v AlbuMAX) at 37° C., 5% CO2 and 5% oxygen at 5% hematocrit with daily change of medium. Synchronization was performed with sorbitol twice a week (Lambros and Vanderberg 1979).
# (§3) In Vitro Drug Sensitivity Assay
# (§4) All compounds were dissolved in DMSO at stock dilutions between 25 and 100 mM; the reference drug chloroquine diphosphate (MW: 515.86) was diluted in distilled water and DMSO, respectively. […] Antiplasmodial activity of the different compounds was tested in a drug sensitivity assay against the two laboratory strains using the histidine-rich protein 2 (HRP2) assay as described previously (Noedl 2005). In brief: 96 well plates were pre-coated with the different compounds in a threefold dilution before ring stage parasites were added in complete culture medium at a hematocrit of 1.5% and a parasitemia of 0.05% in a total volume of 225 μl per well. After three days of incubation plates were frozen until analyzed by HRP2-ELISA. All compounds were evaluated in duplicate in at least two independent experiments.
# [10] = test system: P. falciparum 3D7 (sensitive strain); experiment: as above; assay type: cell-based; conditions: Plasmodium falciparum, 3D7, read-out: IC50 against P. falciparum 3D7
# Experimental: as §2, §3, §4
smiles,measurement,setting,value
"CC1=C[C@@H](C)C2C3C(=O)C(Cl)(Cl)C(=O)[C@H](C)C(=O)O[C@@H](C)/C=C/C=C\[C@@H](C)[C@@H]3C=C[C@@H]2C1 (stereo partly drawn) [Chlorotonil A (ChA), Chlorotonil A]",IC50,[1],9 nM
same,solubility,[2],1.8 µg/mL
same,IC50,[3],15.2 nM
same,Development of resistant parasites in vitro by drug pressure,Plasmodium falciparum,not possible to develop resistant parasites in vitro by drug pressure
same,IC50,[4],29.6 nM
same,IC50,[5],1100 nM
same,solubility at 18 h,[6],3 µg/mL
same,IC50,[7],18 nM
same,MIC E. coli TolC (+PMBN),E. coli TolC (+PMBN),0.4 µg/mL
same,oral availability,[8],orally available
same,IC50,[9],20.7 nM
same,IC50,[10],18.7 nM
